How the values were obtained:
[1] = test system: Aureobasidium pullulans (QM 3092); experiment: Screening of fungi for enzyme activity with 4-methylumbelliferone-labelled substrates; assay type: cell-based; conditions: substrate 10 μM, 25° C., pH 5
[2] = test system: Paecilomyces farinosus (AGM 5); experiment: as above; assay type: cell-based; conditions: substrate 10 μM, 25° C., pH 5
[3] = test system: Cladosporium herbarum (AGM 8); experiment: as above; assay type: cell-based; conditions: substrate 10 μM, 25° C., pH 5
[4] = test system: Penicillium commune (IBT 13713); experiment: as above; assay type: cell-based; conditions: substrate 10 μM, 25° C., pH 5
[5] = test system: Penicillium solitum (IBT 13771); experiment: as above; assay type: cell-based; conditions: substrate 10 μM, 25° C., pH 5
[6] = test system: Aspergillus oryzae (AGM 11); experiment: as above; assay type: cell-based; conditions: substrate 10 μM, 25° C., pH 5
[7] = test system: Mucor racemosus (AAS 310); experiment: as above; assay type: cell-based; conditions: substrate 10 μM, 25° C., pH 5
[8] = test system: Ascobolus crenulatus (AAS 1); experiment: as above; assay type: cell-based; conditions: substrate 10 μM, 25° C., pH 5
[9] = test system: Trametes versicolor (AGM 24); experiment: as above; assay type: cell-based; conditions: substrate 10 μM, 25° C., pH 5
[10] = test system: Rhizomucor pusillus (AAS 300); experiment: as above; assay type: cell-based; conditions: substrate 10 μM, 25° C., pH 5
[11] = test system: Schizophyllum commune (AGM 25); experiment: as above; assay type: cell-based; conditions: substrate 10 μM, 25° C., pH 5
[12] = test system: Sodaria fimicola (AAS 17); experiment: as above; assay type: cell-based; conditions: substrate 10 μM, 25° C., pH 5
[13] = test system: Eurotium sp. (AAS 36); experiment: as above; assay type: cell-based; conditions: substrate 10 μM, 25° C., pH 5
[14] = test system: Aspergillus versicolor (IBT 13738); experiment: as above; assay type: cell-based; conditions: substrate 10 μM, 25° C., pH 5
[15] = test system: human hexosaminidase; experiment: Cleavage of substrate in human blood and plasma samples; assay type: biochemical
Text: The diagnostic method detects fungal β-N-acetylhexosaminidase activity in human plasma. […] However, it was discovered that this human hexosaminidase activity can be eliminated by a pre-treatment step comprising precipitation e.g. by adding ammonium sulphate (70% saturation) to the human plasma samples. […] In the samples containing C. albicans culture fluid more than 75% of the fungal β-N-acetylhexosaminidase activity remained after precipitation step to eliminate interfering human enzyme activity. […] After incubation, 300 μl Tris buffer (2.5 M) was added to the mixture to increase the pH to above 9 and the fluorescence measured. This procedure was tested on plasma from different control subjects with no known previous fungal infections. Culture fluids from cultivation of C. albicans or of A. fumigatus containing β-N-acetylhexosaminidase activity were added to the plasma samples. […] After the incubation, Tris buffer was added and the fluorescence formed was measured against the control samples. The presence of fungal β-N-acetylhexosaminidase activity was detected and the fluorescence was proportional to the amount of fungal β-N-acetylhexosaminidase added.

[16] = test system: all fungi tested; experiment: Screening of a diverse selection of fungi for ability to degrade 11 substrates (summary); assay type: cell-based; conditions: mineral medium and vegetable juice medium
Protocol: A number of fungi representing different taxonomic groupings were screened for enzyme activity. The fungi were grown for in 24 well plates (Nunclon Multidish, Life Technologies A/S) (well volume 3.4 ml) containing 1.5 ml of agarized growth medium. After a growth period of 10 days at 25° C., 1.5 ml citrate-phosphat buffer (pH 5) were added to the wells and one of 11 enzyme substrates were then added to each well and incubated for 5 hours at 25° C. after which the fluorescence of each well was measured. For each fungus two wells were incubated with each enzyme substrate. All substrates were used in a final concentration of 10 μM. The substrate only and the organism plus the agarized medium were included as controls. […] The fungi subjected to the assaying procedure were all obtained from the culture collection of the Department of General Microbiology at the University of Copenhagen, Denmark.

CC(=O)N[C@H]1[C@H](Oc2ccc3c(C)cc(=O)oc3c2)O[C@H](CO)[C@@H](O)[C@@H]1O [substrate 3, 4-methylumbelliferyl N-acetyl-β-D-blucosaminide]
Enzyme activity: amount of released 4-methylumbelliferone during 5 hours of incubation ([1]; Aureobasidium pulluians (QM 3092), vegetable juice medium): *** (2 ≦ ***) | Enzyme activity: amount of released 4-methylumbelliferone ([1]; Aureobasidium pullulans (QM 3092), mineral medium): *** (2 ≦ ***) | Enzyme activity: amount of released 4-methylumbelliferone ([2]; mineral medium): *** (2 ≦ ***) | Enzyme activity: amount of released 4-methylumbelliferone during 5 hours of incubation ([2]; vegetable juice medium): *** (2 ≦ ***) | Enzyme activity: amount of released 4-methylumbelliferone ([3]; mineral medium): ** (1 ≦ ** 2) | Enzyme activity: amount of released 4-methylumbelliferone during 5 hours of incubation ([3]; vegetable juice medium): ** (1 ≦ ** 2) | Enzyme activity: amount of released 4-methylumbelliferone ([4]; mineral medium): ** (1 ≦ ** 2) | Enzyme activity: amount of released 4-methylumbelliferone during 5 hours of incubation ([4]; vegetable juice medium): *** (2 ≦ ***) | Enzyme activity: amount of released 4-methylumbelliferone ([5]; mineral medium): *** (2 ≦ ***) | Enzyme activity: amount of released 4-methylumbelliferone during 5 hours of incubation ([5]; vegetable juice medium): *** (2 ≦ ***) | Enzyme activity: amount of released 4-methylumbelliferone ([6]; mineral medium): *** (2 ≦ ***) | Enzyme activity: amount of released 4-methylumbelliferone during 5 hours of incubation ([6]; vegetable juice medium): *** (2 ≦ ***) | Enzyme activity: amount of released 4-methylumbelliferone ([7]; mineral medium): *** (2 ≦ ***) | Enzyme activity: amount of released 4-methylumbelliferone during 5 hours of incubation ([7]; vegetable juice medium): *** (2 ≦ ***) | Enzyme activity: amount of released 4-methylumbelliferone ([8]; mineral medium): *** (2 ≦ ***) | Enzyme activity: amount of released 4-methylumbelliferone during 5 hours of incubation ([8]; vegetable juice medium): *** (2 ≦ ***) | Enzyme activity: amount of released 4-methylumbelliferone ([9]; mineral medium): ** (1 ≦ ** 2) | Enzyme activity: amount of released 4-methylumbelliferone during 5 hours of incubation ([9]; vegetable juice medium): *** (2 ≦ ***) | Enzyme activity: amount of released 4-methylumbelliferone ([10]; mineral medium): * (0.4 ≦ * < 1) | Enzyme activity: amount of released 4-methylumbelliferone during 5 hours of incubation ([10]; vegetable juice medium): *** (2 ≦ ***) | Enzyme activity: amount of released 4-methylumbelliferone ([11]; mineral medium): *** (2 ≦ ***) | Enzyme activity: amount of released 4-methylumbelliferone during 5 hours of incubation ([11]; vegetable juice medium): *** (2 ≦ ***) | Enzyme activity: amount of released 4-methylumbelliferone ([12]; mineral medium): ** (1 ≦ ** 2) | Enzyme activity: amount of released 4-methylumbelliferone during 5 hours of incubation ([12]; vegetable juice medium): *** (2 ≦ ***) | Enzyme activity: amount of released 4-methylumbelliferone ([13]; mineral medium): *** (2 ≦ ***) | Enzyme activity: amount of released 4-methylumbelliferone during 5 hours of incubation ([13]; vegetable juice medium): *** (2 ≦ ***) | Enzyme activity: amount of released 4-methylumbelliferone ([14]; mineral medium): ** (1 ≦ ** 2) | Enzyme activity: amount of released 4-methylumbelliferone during 5 hours of incubation ([14]; vegetable juice medium): *** (2 ≦ ***) | cleavage by human hexosaminidase [15]: also cleaved by human hexosaminidase | ability to degrade the substrate [16]: could be demonstrated in all fungi tested
